Columns and labels:
[1] = molar heat capacity at constant pressure; conditions: Liquid, Flow calorimetry
[2] = Liquid; for mass density: Vibrating tube method

CCC(C)O (stereo unspecified) [butan-2-ol]
Conditions	mass density, [2] [kg/m3]	molar heat capacity at constant pressure, [1] [J/K/mol]
273.15 K, 100 kPa	822.3	–
273.15 K, 1000 kPa	822.7	–
273.15 K, 2000 kPa	823.4	–
273.15 K, 5000 kPa	825.4	–
273.15 K, 10000 kPa	828.7	–
273.15 K, 15000 kPa	831.8	–
273.15 K, 20000 kPa	834.7	–
273.15 K, 30000 kPa	840.4	–
273.15 K, 40000 kPa	845.7	–
273.15 K, 50000 kPa	850.7	–
273.15 K, 60000 kPa	855.4	–
273.15 K, 70000 kPa	859.9	–
273.15 K, 80000 kPa	864.3	–
273.15 K, 90000 kPa	868.4	–
273.15 K, 100000 kPa	872.4	–
273.15 K, 110000 kPa	876.3	–
273.15 K, 120000 kPa	879.9	–
273.15 K, 130000 kPa	883.5	–
273.15 K, 140000 kPa	887.2	–
293.15 K, 100 kPa	806.3	189.1
293.15 K, 1000 kPa	807	–
293.15 K, 2000 kPa	807.8	–
293.15 K, 5000 kPa	810	187.1
293.15 K, 10000 kPa	813.6	185.5
293.15 K, 15000 kPa	817	185.2
293.15 K, 20000 kPa	820.2	183.6
293.15 K, 25000 kPa	–	182.7
293.15 K, 30000 kPa	826.5	–
293.15 K, 40000 kPa	832.3	–
293.15 K, 50000 kPa	837.7	–
293.15 K, 60000 kPa	842.8	–
293.15 K, 70000 kPa	847.7	–
293.15 K, 80000 kPa	852.3	–
293.15 K, 90000 kPa	856.7	–
313.15 K, 100 kPa	–	214.9
313.15 K, 5000 kPa	–	213.1
313.15 K, 10000 kPa	–	211.1
313.15 K, 15000 kPa	–	209.4
313.15 K, 20000 kPa	–	207.2
313.15 K, 25000 kPa	–	204.9

Conditions	viscosity [mPa·s]
[2], 293.15 K, 100 kPa, Concentric cylinders viscometry	3.725

Reference: the NIST ThermoML archive (doi:10.1016/j.jct.2017.03.006)
